Data taken from US20130266964A1, “METHOD OF DETECTING ENDOTHELIAL PROGENITOR CELLS” (PURDUE RESEARCH FOUNDATION, priority 2006, published 2013).

Legend:
[1] = target: T1, cell surface folate receptors on folate receptor positive M109 cells (Mus musculus, UniProt P35846); assay: fluorescence measurement of binding to cell surface folate receptors on M109 cells in culture; format: cell-based
T1 construct: cell surface folate receptors on folate receptor positive M109 cells in culture; endogenous in cells; host or cells: M109 cells
T1 sequence (P35846 25-232): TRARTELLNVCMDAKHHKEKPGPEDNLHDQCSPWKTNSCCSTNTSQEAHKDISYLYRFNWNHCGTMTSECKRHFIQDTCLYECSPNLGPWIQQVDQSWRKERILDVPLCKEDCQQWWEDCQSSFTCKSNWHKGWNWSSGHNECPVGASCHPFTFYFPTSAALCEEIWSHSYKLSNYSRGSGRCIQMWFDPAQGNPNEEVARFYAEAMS
Experimental: AlexaFluor 488 C5-maleimide (Molecular Probes, Eugene, Oreg.) was dissolved in dimethyl sulfoxide (DMSO) (0.5 mg in 50 μl DMSO). A 1.5 molar equivalent (0.57 mg) of Folate-Cys was added to the solution and mixed for 4 hours at room temperature. Folate-Cys-AlexaFluor 488 (Folate-AlexaFluor) was purified by reverse-phase HPLC on a C18 column at a flow rate of 1 ml/min. The mobile phase, consisting of 10 mM NH4HCO3 buffer, pH 7.0 (eluent A) and acetonitrile (eluent B), was maintained at a 99:1 A:B ratio for the first minute and then changed to 1:99 A:B in a linear gradient over the next 29 minutes. Folate-Cys-AlexaFluor 488 eluted at 20 minutes. The product was confirmed by mass spectroscopy and the biologic activity was confirmed by fluorescence measurement of its binding to cell surface folate receptors on folate receptor positive M109 cells in culture.
Texas Red C2-maleimide (Molecular Probes, Eugene, Oreg.) was dissolved in dimethyl sulfoxide (DMSO) (1 mg in 200 μl DMSO). A 1.4 molar equivalent (1 mg) of Folate-Cys was added to the solution and mixed for 4 hours at room temperature. […] The product was confirmed by mass spectroscopy and the biologic activity was confirmed by fluorescence measurement of its binding to cell surface folate receptors on folate receptor positive M109 cells in culture.

[2] = test system: folate receptor on CD133+ Flk1+ endothelial progenitor cells; assay: folate-FITC binding to endothelial progenitor cells quantified by flow cytometry; format: cell-based, BALB/c mice; settings: 100 nM folate-FITC
Experimental: Female 6- to 8-week-old BALB/c mice were injected in the peritoneal cavity with either Complete Freund's Adjuvant (CFA; 50-100 μL), Pseudomonas aeruginosa (1×10^7 CFU (colony forming units)), or Yersinia enterocolitica (1×10^6 CFU). Cells were isolated from the peritoneal cavity by lavage with 8 mL of sterile phosphate-buffered saline (PBS) 2-4 days later. The cells were pelleted by centrifugation (400×g, 10 minutes at room temperature) and resuspended in folate-deficient RPMI-1640 media (FD-RPMI; Gibco) containing 10% heat-inactivated fetal bovine serum (FBS), penicillin (100 IU/mL) and streptomycin (100 μg/mL). Peritoneal extracted cells were seeded at densities of 1×10^6 cells/microcentrifuge tube for antibody and folate conjugate studies.
All binding experiments were conducted on ice or in a 4° C. cold room unless indicated otherwise. All antibody labeling was optimized by titration. Optimal labeling was most often achieved with a 1/1000-1/10,000 dilution of the manufacture's stock antibody solution. After cells were labeled with antibodies, the samples were washed twice with PBS to remove non-specific binding. The samples were then incubated with a 100 nM concentration of folate-FITC for 45 minutes. […] All samples were analyzed by flow cytometry using a Becton Dickinson FACS Calibur (BD, Franklin Lakes, N.J.).

Row | biologic activity: binding to cell surface folate receptors [1] | Structure (SMILES) | binding to CD133+ Flk1+ endothelial progenitor cells ([2]; 45 minutes, on ice or 4° C., absence of unlabeled folic acid) | binding to CD133+ Flk1+ endothelial progenitor cells with competition ([2]; pre-incubation with 100-fold excess of unlabeled folic acid (10 μM))
1 | confirmed | N=c1ccc2c(-c3ccc(C(=O)NCCCCCN4C(=O)CC(SCC(NC(=O)CCC(NC(=O)c5ccc(NCc6cnc7nc(N)[nH]c(=O)c7n6)cc5)C(=O)O)C(=O)O)C4=O)cc3C(=O)O)c3ccc(N)c(S(=O)(=O)O)c3oc-2c1S(=O)(=O)O (stereo not shown) [Folate-Cys-AlexaFluor 488] | – | –
2 | confirmed | Nc1nc2ncc(CNc3ccc(C(=O)NC(CCC(=O)NC(CSC4CC(=O)N(CCNS(=O)(=O)c5ccc(C6=c7cc8c9c(c7Oc7c6cc6c%10c7CCCN%10CCC6)CCC[N+]=9CCC8)c(S(=O)(=O)O)c5)C4=O)C(=O)O)C(=O)O)cc3)nc2c(=O)[nH]1 (stereo not shown) [Folate-Cys-Texas Red] | – | –
3 | – | Nc1nc2ncc(CNc3ccc(C(=O)NC(CCC(=O)NCCNC(=S)Nc4ccc(C(=O)O)c(-c5c6ccc(=O)cc-6oc6cc(O)ccc56)c4)C(=O)O)cc3)nc2c(=O)[nH]1 (stereo not shown) [folate-FITC] | bound | competed
